Measured values from patent US8143408B2, “N-(8-heteroaryltetrahydronaphtalene-2yl) or N-(5-heteroarylchromane-3-yl) carboxamide derivatives for the treatment of pain” (AstraZeneca AB, priority 2007, dated 2012).

target: T1, Nav1.7 voltage-gated sodium channel (Homo sapiens, UniProt Q15858); experiment: Whole-cell voltage clamp electrophysiology assay; format: cell-based; details: cells stably expressing the voltage-gated sodium channel of interest
T1 construct: Gene(s) encoding the full-length protein of the voltage-gated sodium channel of interest are cloned and expressed; expressed in transfected cells
Summary of the method: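 Cells expressing full-length channel, exposed to drug by integrated pipetting on automated patch-clamp platforms or by microperfusion in conventional whole-cell patch clamp. Channels activated by a voltage protocol depolarising from a defined holding potential; buffers per platform manufacturer.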

T1 sequence (Q15858 whole entry): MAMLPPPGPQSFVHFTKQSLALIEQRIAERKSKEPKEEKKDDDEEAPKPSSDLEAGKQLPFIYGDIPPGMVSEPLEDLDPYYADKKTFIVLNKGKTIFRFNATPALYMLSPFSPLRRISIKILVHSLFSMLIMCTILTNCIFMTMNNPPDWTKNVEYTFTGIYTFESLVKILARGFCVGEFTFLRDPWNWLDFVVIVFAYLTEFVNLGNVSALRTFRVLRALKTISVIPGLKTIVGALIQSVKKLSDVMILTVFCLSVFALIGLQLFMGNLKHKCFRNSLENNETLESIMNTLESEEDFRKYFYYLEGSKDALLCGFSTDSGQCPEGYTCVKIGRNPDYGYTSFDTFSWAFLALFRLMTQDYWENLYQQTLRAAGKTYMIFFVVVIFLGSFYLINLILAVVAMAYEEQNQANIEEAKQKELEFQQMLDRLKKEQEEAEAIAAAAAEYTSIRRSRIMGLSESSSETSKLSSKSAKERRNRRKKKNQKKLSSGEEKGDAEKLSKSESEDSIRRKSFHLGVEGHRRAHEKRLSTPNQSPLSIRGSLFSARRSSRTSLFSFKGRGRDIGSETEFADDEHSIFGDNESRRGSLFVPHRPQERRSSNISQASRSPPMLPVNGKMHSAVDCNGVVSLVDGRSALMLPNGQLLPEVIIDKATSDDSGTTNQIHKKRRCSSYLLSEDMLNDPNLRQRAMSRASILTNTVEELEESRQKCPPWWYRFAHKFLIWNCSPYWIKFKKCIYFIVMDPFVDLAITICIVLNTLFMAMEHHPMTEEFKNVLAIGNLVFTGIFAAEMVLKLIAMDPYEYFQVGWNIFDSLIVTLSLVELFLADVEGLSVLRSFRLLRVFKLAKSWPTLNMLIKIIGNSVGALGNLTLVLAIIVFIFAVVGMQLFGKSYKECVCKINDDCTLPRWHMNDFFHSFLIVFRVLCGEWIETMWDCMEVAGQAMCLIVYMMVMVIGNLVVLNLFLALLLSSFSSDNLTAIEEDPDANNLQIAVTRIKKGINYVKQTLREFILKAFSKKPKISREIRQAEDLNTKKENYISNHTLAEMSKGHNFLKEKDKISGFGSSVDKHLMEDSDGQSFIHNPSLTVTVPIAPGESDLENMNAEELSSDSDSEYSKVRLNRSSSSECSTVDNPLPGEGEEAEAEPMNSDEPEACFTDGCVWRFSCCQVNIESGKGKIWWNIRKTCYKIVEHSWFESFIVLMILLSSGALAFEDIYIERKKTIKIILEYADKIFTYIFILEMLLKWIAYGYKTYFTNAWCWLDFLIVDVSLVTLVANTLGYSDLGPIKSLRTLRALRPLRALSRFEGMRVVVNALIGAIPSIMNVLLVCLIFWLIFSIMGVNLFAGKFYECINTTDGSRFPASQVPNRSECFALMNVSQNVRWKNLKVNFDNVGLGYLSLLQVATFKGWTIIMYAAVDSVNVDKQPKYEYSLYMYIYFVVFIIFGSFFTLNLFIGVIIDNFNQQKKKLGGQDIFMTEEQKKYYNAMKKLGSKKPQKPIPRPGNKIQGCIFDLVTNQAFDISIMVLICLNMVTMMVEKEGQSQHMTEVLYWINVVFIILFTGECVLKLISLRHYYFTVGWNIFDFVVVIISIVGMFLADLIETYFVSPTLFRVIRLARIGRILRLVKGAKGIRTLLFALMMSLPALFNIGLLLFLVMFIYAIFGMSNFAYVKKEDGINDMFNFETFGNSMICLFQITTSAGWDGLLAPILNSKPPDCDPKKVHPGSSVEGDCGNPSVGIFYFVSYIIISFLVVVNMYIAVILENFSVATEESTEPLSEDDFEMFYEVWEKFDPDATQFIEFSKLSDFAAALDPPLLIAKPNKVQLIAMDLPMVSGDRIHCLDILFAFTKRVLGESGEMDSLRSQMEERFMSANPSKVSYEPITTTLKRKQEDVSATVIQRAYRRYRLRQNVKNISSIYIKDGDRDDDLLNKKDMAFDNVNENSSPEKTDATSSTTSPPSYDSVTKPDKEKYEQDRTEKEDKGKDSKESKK

Row | Structure (SMILES) | IC50
1 | COCCOc1ccc(C(=O)N[C@@H]2CCc3cccc(-c4cccnc4F)c3C2)cn1 [Example 144, N-[(2R)-8-(2-fluoropyridin-3-yl)-1,2,3,4-tetrahydronaphthalen-2-yl]-6-(2-methoxyethoxy)nicotinamide] | 3.16 µM
2 | O=C(N[C@@H]1CCc2cccc(-c3ccnnc3)c2C1)c1ccc(OC2CCCOC2)nc1 (stereo partly drawn) [Example 146, N-[(2R)-8-pyridazin-4-yl-1,2,3,4-tetrahydronaphthalen-2-yl]-6-(tetrahydro-2H-pyran-3-yloxy)nicotinamide] | 7.94 µM
3 | Cc1ccc(-c2cccc3c2C[C@H](NC(=O)c2cnc(OC4CCCOC4)nc2)CC3)cn1 (stereo partly drawn) [Example 147, N-[(2R)-8-(6-methylpyridin-3-yl)-1,2,3,4-tetrahydronaphthalen-2-yl]-2-(tetrahydro-2H-pyran-3-yloxy)pyrimidine-5-carboxamide] | 1.58 µM
4 | COc1ncc(-c2cccc3c2C[C@H](NC(=O)c2cnc(OC4CCOC4)nc2)CO3)cc1F (stereo partly drawn) [Example 149, N-[(3S)-5-(5-fluoro-6-methoxypyridin-3-yl)-3,4-dihydro-2H-chromen-3-yl]-2-(tetrahydrofuran-3-yloxy)pyrimidine-5-carboxamide] | 6.31 µM
5 | CCCCn1ccc(C(=O)N[C@@H]2COc3cccc(-c4cnc(OC)nc4)c3C2)cc1=O [Example 150, 1-butyl-N-[(3S)-5-(2-methoxypyrimidin-5-yl)-3,4-dihydro-2H-chromen-3-yl]-2-oxo-1,2-dihydropyridine-4-carboxamide] | 1 µM
6 | Cc1cc(-c2cccc3c2C[C@H](NC(=O)c2ccc(OC4CCCOC4)nc2)CO3)cnc1F (stereo partly drawn) [Example 151, N-[(3S)-5-(6-fluoro-5-methylpyridin-3-yl)-3,4-dihydro-2H-chromen-3-yl]-6-(tetrahydro-2H-pyran-3-yloxy)nicotinamide] | 0.251 µM
7 | Cc1cc(-c2cccc3c2C[C@H](NC(=O)c2cnc(OC4CCCOC4)nc2)CO3)cnc1F (stereo partly drawn) [Example 153, N-[(3S)-5-(6-fluoro-5-methylpyridin-3-yl)-3,4-dihydro-2H-chromen-3-yl]-2-(tetrahydro-2H-pyran-3-yloxy)pyrimidine-5-carboxamide] | 0.631 µM
8 | COc1ncc(-c2cccc3c2C[C@@H](NC(=O)c2ccc(OC4CCOCC4)nc2)CC3)cn1 [Example 154, N-[(2S)-8-(2-methoxypyrimidin-5-yl)-1,2,3,4-tetrahydronaphthalen-2-yl]-6-(tetrahydro-2H-pyran-4-yloxy)nicotinamide] | 6.31 µM
9 | Cc1ncc(-c2cccc3c2C[C@H](NC(=O)c2ccc(OC4CCOCC4)nc2)CO3)cn1 [Example 155, N-[(3S)-5-(2-methylpyrimidin-5-yl)-3,4-dihydro-2H-chromen-3-yl]-6-(tetrahydro-2H-pyran-4-yloxy)nicotinamide] | 1.26 µM
10 | Cc1ncc(-c2cccc3c2C[C@H](NC(=O)c2ccc(OC4CCCOC4)nc2)CC3)cn1 (stereo partly drawn) [Example 160, N-[(2R)-8-(2-methylpyrimidin-5-yl)-1,2,3,4-tetrahydronaphthalen-2-yl]-6-(tetrahydro-2H-pyran-3-yloxy)nicotinamide] | 3.16 µM
11 | COc1ncc(-c2cccc3c2C[C@H](NC(=O)c2ccc(OCCOCC(F)(F)F)nc2)CO3)cn1 [Example 163, N-[(3S)-5-(2-methoxypyrimidin-5-yl)-3,4-dihydro-2H-chromen-3-yl]-6-[2-(2,2,2-trifluoroethoxy)ethoxy]nicotinamide] | 0.0398 µM
12 | COc1ncc(-c2cccc3c2C[C@H](NC(=O)c2ccc(OCC4COCCO4)nc2)CO3)cc1F (stereo partly drawn) [Example 166, 6-(1,4-dioxan-2-ylmethoxy)-N-[(3S)-5-(5-fluoro-6-methoxypyridin-3-yl)-3,4-dihydro-2H-chromen-3-yl]nicotinamide] | 0.501 µM
13 | COc1ncc(-c2cccc3c2C[C@H](NC(=O)c2ccc(C(=O)NCCC(F)(F)F)nc2)CC3)cn1 [Example 167, N^5-[(2R)-8-(2-methoxypyrimidin-5-yl)-1,2,3,4-tetrahydronaphthalen-2-yl]-N^2-(3,3,3-trifluoropropyl)pyridine-2,5-dicarboxamide] | 0.398 µM
14 | O=C(N[C@@H]1COc2cccc(-c3ccc4nccn4c3)c2C1)c1ccc(OC2CCOCC2)nc1 [Example 169, N-[(3S)-5-imidazo[1,2-a]pyridin-6-yl-3,4-dihydro-2H-chromen-3-yl]-6-(tetrahydro-2H-pyran-4-yloxy)nicotinamide] | 0.2 µM
15 | COc1ncc(-c2cccc3c2C[C@H](NC(=O)c2ccc(C(=O)NC4CCC(F)(F)CC4)nc2)CO3)cn1 [Example 170, N^2-(4,4-difluorocyclohexyl)-N^5-[(3S)-5-(2-methoxypyrimidin-5-yl)-3,4-dihydro-2H-chromen-3-yl]pyridine-2,5-dicarboxamide] | 0.251 µM
16 | COc1ncc(-c2cccc3c2C[C@H](NC(=O)c2ccc(C(=O)NCCCC(F)(F)F)nc2)CO3)cn1 [Example 171, N^5-[(3S)-5-(2-methoxypyrimidin-5-yl)-3,4-dihydro-2H-chromen-3-yl]-N^2-(4,4,4-trifluorobutyl)pyridine-2,5-dicarboxamide] | 0.126 µM

The remaining compounds from weak to strong by IC50, led by results:

Row | IC50 | Structure (SMILES)
17 | 7.94 µM | Cc1ncc(-c2cccc3c2C[C@H](NC(=O)c2ccc(OCC4CCCO4)nc2)CC3)cn1 (stereo partly drawn) [Example 161, N-[(2R)-8-(2-methylpyrimidin-5-yl)-1,2,3,4-tetrahydronaphthalen-2-yl]-6-(tetrahydrofuran-2-ylmethoxy)nicotinamide]
18 | 6.31 µM | Cc1ncc(-c2cccc3c2C[C@H](NC(=O)c2ccc(OC4CCOC4)nc2)CC3)cn1 (stereo partly drawn) [Example 159, N-[(2R)-8-(2-methylpyrimidin-5-yl)-1,2,3,4-tetrahydronaphthalen-2-yl]-6-(tetrahydrofuran-3-yloxy)nicotinamide]
19 | 6.31 µM | CC#CCOc1ccc(C(=O)N[C@@H]2CCc3cccc(-c4cnc(OC)nc4)c3C2)cn1 [Example 168, 6-(but-2-yn-1-yloxy)-N-[(2R)-8-(2-methoxypyrimidin-5-yl)-1,2,3,4-tetrahydronaphthalen-2-yl]nicotinamide]
20 | 3.98 µM | COCCOc1ccc(C(=O)N[C@@H]2COc3cccc(-c4cnc(C)nc4)c3C2)cn1 [Example 141, 6-(2-methoxyethoxy)-N-[(3S)-5-(2-methylpyrimidin-5-yl)-3,4-dihydro-2H-chromen-3-yl]nicotinamide]
21 | 3.98 µM | COc1ncc(-c2cccc3c2C[C@H](NC(=O)c2ccc(OC4CCOC4)nc2)CO3)cn1 (stereo partly drawn) [Example 158, N-[(3S)-5-(2-methoxypyrimidin-5-yl)-3,4-dihydro-2H-chromen-3-yl]-6-(tetrahydrofuran-3-yloxy)nicotinamide]
22 | 3.16 µM | COCCOc1ccc(C(=O)N[C@@H]2COc3cccc(-c4ccncc4C)c3C2)cn1 [Example 142, 6-(2-methoxyethoxy)-N-[(3S)-5-(3-methylpyridin-4-yl)-3,4-dihydro-2H-chromen-3-yl]nicotinamide]
23 | 2 µM | COc1ncc(-c2cccc3c2C[C@H](NC(=O)c2ccc(OC4CCOCC4)nc2)CC3)cn1 [Example 156, N-[(2R)-8-(2-methoxypyrimidin-5-yl)-1,2,3,4-tetrahydronaphthalen-2-yl]-6-(tetrahydro-2H-pyran-4-yloxy)nicotinamide]
24 | 1.58 µM | O=C(N[C@@H]1COc2cccc(-c3cccnc3)c2C1)c1ccc(OCC2CCO2)nc1 (stereo partly drawn) [Example 139, 6-(oxetan-2-ylmethoxy)-N-[(3S)-5-pyridin-3-yl-3,4-dihydro-2H-chromen-3-yl]nicotinamide]
25 | 1.58 µM | COCCOc1ccc(C(=O)N[C@@H]2COc3cccc(-c4ccc(F)nc4)c3C2)cn1 [Example 143, N-[(3S)-5-(6-fluoropyridin-3-yl)-3,4-dihydro-2H-chromen-3-yl]-6-(2-methoxyethoxy)nicotinamide]
26 | 1.26 µM | CCCCn1ccc(C(=O)N[C@@H]2COc3cccc(-c4cnc(F)c(C)c4)c3C2)cc1=O [Example 152, 1-butyl-N-[(3S)-5-(6-fluoro-5-methylpyridin-3-yl)-3,4-dihydro-2H-chromen-3-yl]-2-oxo-1,2-dihydropyridine-4-carboxamide]
27 | 1 µM | COc1ncc(-c2cccc3c2C[C@H](NC(=O)c2ccc(OC4CCCOC4)nc2)CO3)cn1 (stereo partly drawn) [Example 157, N-[(3S)-5-(2-methoxypyrimidin-5-yl)-3,4-dihydro-2H-chromen-3-yl]-6-(tetrahydro-2H-pyran-3-yloxy)nicotinamide]
28 | 1 µM | O=C(N[C@@H]1CCc2cccc(-c3cccnc3F)c2C1)c1ccc(OCC2COCCO2)nc1 (stereo partly drawn) [Example 164, 6-(1,4-dioxan-2-ylmethoxy)-N-[(2R)-8-(2-fluoropyridin-3-yl)-1,2,3,4-tetrahydronaphthalen-2-yl]nicotinamide]
29 | 0.794 µM | CCCCn1ccc(C(=O)N[C@@H]2COc3cccc(-c4cnc(OC)c(F)c4)c3C2)cc1=O [Example 148, 1-butyl-N-[(3S)-5-(5-fluoro-6-methoxypyridin-3-yl)-3,4-dihydro-2H-chromen-3-yl]-2-oxo-1,2-dihydropyridine-4-carboxamide]
30 | 0.631 µM | COCCOc1ccc(C(=O)N[C@@H]2COc3cccc(-c4ccnc(OC)c4)c3C2)cn1 [Example 140, 6-(2-methoxyethoxy)-N-[(3S)-5-(2-methoxypyridin-4-yl)-3,4-dihydro-2H-chromen-3-yl]nicotinamide]
31 | 0.501 µM | COc1ncc(-c2cccc3c2C[C@H](NC(=O)c2ccc(OCCOCC(F)(F)F)nc2)CC3)cn1 [Example 162, N-[(2R)-8-(2-methoxypyrimidin-5-yl)-1,2,3,4-tetrahydronaphthalen-2-yl]-6-[2-(2,2,2-trifluoroethoxy)ethoxy]nicotinamide]
32 | 0.2 µM | O=C(N[C@@H]1CCc2cccc(-c3cccnc3F)c2C1)c1ccc(OC2CCOCC2)nc1 [Example 145, N-[(2R)-8-(2-fluoropyridin-3-yl)-1,2,3,4-tetrahydronaphthalen-2-yl]-6-(tetrahydro-2H-pyran-4-yloxy)nicotinamide]
33 | 0.158 µM | COc1cc(-c2cccc3c2C[C@H](NC(=O)c2ccc(OCC4COCCO4)nc2)CO3)ccn1 (stereo partly drawn) [Example 165, 6-(1,4-dioxan-2-ylmethoxy)-N-[(3S)-5-(2-methoxypyridin-4-yl)-3,4-dihydro-2H-chromen-3-yl]nicotinamide]
